The values below come from ChEMBL document CHEMBL4049460, “Trisubstituted Imidazoles with a Rigidized Hinge Binding Motif Act As Single Digit nM Inhibitors of Clinically Relevant EGFR L858R/T790M and L858R/T790M/C797S Mutants: An Example of Target Hopping” (J Med Chem, 2017).

Molecules are shown by their SMILES.

Experiment [1] deals with Epidermal growth factor receptor (Homo sapiens), P00533 [L858R]. Briefly: Inhibition of recombinant human N-terminally GST-His6 tagged EGFR L858R mutant (H672 to A1210 residues) C-terminal fragment harboring 3C cleavage site expressed in Baculovirus infected Sf9 cells assessed as residual activity at 1 uM in presence of [33-gamma]-ATP after 60 mins by scintillation counting method relative to control.

Experiment [2] deals with Epidermal growth factor receptor (Homo sapiens, UniProt P00533, L858R). Briefly: Inhibition of recombinant human GST-tagged EGFR L858R mutant cytoplasmic domain expressed in baculovirus expression system preincubated for 20 mins followed by addition of [33P]-ATP measured after 2 hrs by filter-binding method. The conditions noted are these: read-out: IC50.
The next experiment is filed under the species Homo sapiens. Briefly: Inhibition of recombinant human N-terminally GST-His6 tagged EGFR del 747-749/A750P mutant (H672 to A1210 residues) C-terminal fragment harboring 3C cleavage site expressed in Baculovirus infected Sf9 cells assessed as residual activity at 1 uM in presence of [33-gamma]-ATP after 60 mins by scintillation counting method relative to control.

Experiment [3] addresses Misshapen-like kinase 1 (Homo sapiens) (UniProt Q8N4C8). Kind of experiment: Inhibition of recombinant human N-terminally GST-HIS6 tagged MINK1 (M1 to E320 residues) harboring 3C-cleavage site expressed in Baculovirus infected Sf9 cells assessed as residual activity at 1 uM in presence of [33-gamma]-ATP after 60 mins by scintillation counting method relative to control.

Misshapen-like kinase 1 (Homo sapiens), sequence (Q8N4C8 whole entry, looked up, the tested form may be a part): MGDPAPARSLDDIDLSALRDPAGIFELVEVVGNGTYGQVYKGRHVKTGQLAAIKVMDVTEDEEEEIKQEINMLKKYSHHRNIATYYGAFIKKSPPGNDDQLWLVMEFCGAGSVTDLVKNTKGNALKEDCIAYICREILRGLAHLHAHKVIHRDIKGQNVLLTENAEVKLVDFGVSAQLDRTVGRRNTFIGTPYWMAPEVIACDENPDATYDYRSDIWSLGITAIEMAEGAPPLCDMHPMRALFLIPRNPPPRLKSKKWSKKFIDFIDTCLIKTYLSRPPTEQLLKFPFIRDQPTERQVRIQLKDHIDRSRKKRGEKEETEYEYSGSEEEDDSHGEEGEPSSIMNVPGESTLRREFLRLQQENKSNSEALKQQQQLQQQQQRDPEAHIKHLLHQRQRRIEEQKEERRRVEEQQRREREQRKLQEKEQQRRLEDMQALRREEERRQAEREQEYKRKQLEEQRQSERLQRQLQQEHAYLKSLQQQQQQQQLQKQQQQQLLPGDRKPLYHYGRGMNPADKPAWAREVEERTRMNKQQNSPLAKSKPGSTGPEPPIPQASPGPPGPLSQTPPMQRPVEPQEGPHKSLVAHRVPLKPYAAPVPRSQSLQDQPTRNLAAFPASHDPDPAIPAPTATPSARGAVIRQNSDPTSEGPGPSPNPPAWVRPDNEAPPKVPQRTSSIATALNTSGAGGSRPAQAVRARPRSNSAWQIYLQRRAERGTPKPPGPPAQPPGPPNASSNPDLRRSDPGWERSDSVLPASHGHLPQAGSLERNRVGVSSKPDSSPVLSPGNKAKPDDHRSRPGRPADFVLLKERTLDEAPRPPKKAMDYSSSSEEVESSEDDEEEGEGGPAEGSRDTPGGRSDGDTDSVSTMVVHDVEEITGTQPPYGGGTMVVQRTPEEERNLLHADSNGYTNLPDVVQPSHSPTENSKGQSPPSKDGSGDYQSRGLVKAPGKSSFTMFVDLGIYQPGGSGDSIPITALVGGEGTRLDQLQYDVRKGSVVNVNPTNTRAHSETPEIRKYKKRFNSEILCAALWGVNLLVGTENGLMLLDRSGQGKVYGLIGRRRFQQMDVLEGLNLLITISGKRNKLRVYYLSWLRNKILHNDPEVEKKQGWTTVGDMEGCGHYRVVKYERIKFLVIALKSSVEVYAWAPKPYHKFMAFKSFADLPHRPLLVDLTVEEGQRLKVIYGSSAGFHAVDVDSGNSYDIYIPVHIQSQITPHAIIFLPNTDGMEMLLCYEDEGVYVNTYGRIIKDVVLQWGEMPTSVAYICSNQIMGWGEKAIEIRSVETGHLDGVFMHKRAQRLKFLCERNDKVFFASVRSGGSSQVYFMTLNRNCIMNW

As usually defined, the IC50 is the concentration that inhibits the measured activity by half. On to `C=CC(=O)Nc1cccc(-c2c[nH]c3nccc(-c4[nH]c(CCCO)nc4-c4ccc(F)cc4)c23)c1`, for which the values for the Activity (in experiment [1]; in the experiment listed under Homo sapiens; in experiment [3]) were 6%, 6% and 5%, respectively. Moreover, the IC50 in experiment [2] is below 0.3 nM.
